Structures are written as SMILES. ≈ marks a conversion by molar mass, not a printed value.

Usually MIC stands for the smallest concentration in the dilution series that meets the test's criterion for growth inhibition.

Holding throughout (format): functional
Experiment [1] deals with Staphylococcus aureus. Put plainly: Antibacterial activity against Staphylococcus aureus assessed as bacterial growth inhibition incubated for 24 hrs by broth microdilution method.
For experiment [2], the system named is Staphylococcus aureus. Put plainly: Antibacterial activity against Staphylococcus aureus ATCC 29213 assessed as bacterial growth inhibition incubated for 24 hrs by broth microdilution method.
The subject of experiment [3] is Enterococcus faecalis. Put plainly: Antibacterial activity against Enterococcus faecalis assessed as bacterial growth inhibition incubated for 24 hrs by broth microdilution method. For orientation: In broth dilution the organism is exposed to a series of concentrations in liquid medium.
In experiment [4] the test system is Staphylococcus aureus. Nature of the experiment: Antibacterial activity against methicillin-resistant Staphylococcus aureus assessed as bacterial growth inhibition incubated for 24 hrs by broth microdilution method.
The subject of experiment [5] is Escherichia coli. Nature of the experiment: Antibacterial activity against Escherichia coli assessed as bacterial growth inhibition incubated for 24 hrs by broth microdilution method.
In experiment [6] the test system is Staphylococcus aureus. Nature of the experiment: Antibacterial activity against Staphylococcus aureus ATCC 25923 assessed as bacterial growth inhibition incubated for 24 hrs by broth microdilution method.
The test system of experiment [7] is Acinetobacter baumannii. Nature of the experiment: Antibacterial activity against Acinetobacter baumannii assessed as bacterial growth inhibition incubated for 24 hrs by broth microdilution method.
Experiment [8] relates to Escherichia coli. Put plainly: Antibacterial activity against Escherichia coli ATCC 25922 assessed as bacterial growth inhibition incubated for 24 hrs by broth microdilution method.
Experiment [9] relates to Pseudomonas aeruginosa. Nature of the experiment: Antibacterial activity against Pseudomonas aeruginosa assessed as bacterial growth inhibition incubated for 24 hrs by broth microdilution method.
For experiment [10], the system named is Pseudomonas aeruginosa. Put plainly: Antibacterial activity against Pseudomonas aeruginosa ATCC 27853 assessed as bacterial growth inhibition incubated for 24 hrs by broth microdilution method.
Experiment [11] relates to Klebsiella pneumoniae. Nature of the experiment: Antibacterial activity against Klebsiella pneumoniae assessed as bacterial growth inhibition incubated for 24 hrs by broth microdilution method.

As to `O=C(C(Cl)Cl)N1CCN(c2nccc(-n3cncn3)n2)CC1`, the MIC in experiment [1], in experiment [2], in [3], in [4], in [5] and in experiment [6] was 705 µM (≈ 241 µg/mL) each time. Also, the MIC in [7] is 705 µM (≈ 241 µg/mL); in experiment [8], 353 µM (≈ 121 µg/mL); in [9], 88 µM (≈ 30.1 µg/mL); in [10] it was 705 µM (≈ 241 µg/mL); in [11] it was 353 µM (≈ 121 µg/mL).

Turning to `Cc1cc2ncn(-c3ccnc(N(CCO)CCO)n3)c2cc1C`, the MIC was 98 µM (≈ 32.1 µg/mL) in experiment [1]; 782 µM (≈ 256 µg/mL) in [2]; 196 µM (≈ 64.2 µg/mL) in experiment [3]; 391 µM (≈ 128 µg/mL) in experiment [4]; 196 µM (≈ 64.2 µg/mL) in experiment [5]; 391 µM (≈ 128 µg/mL) in experiment [6]. In addition, the MIC in experiment [7] worked out at 391 µM (≈ 128 µg/mL); in experiment [8] it was 782 µM (≈ 256 µg/mL); in experiment [9], 98 µM (≈ 32.1 µg/mL); in experiment [10], 98 µM (≈ 32.1 µg/mL); in experiment [11], 391 µM (≈ 128 µg/mL).

In the case of `CCCc1nccn1-c1ccnc(N(CCO)CCO)n1`, the MIC in [1], in experiment [2], in [3], in [4], in experiment [5] and in [6] was 879 µM (≈ 256 µg/mL) throughout. Moreover, the MIC was 879 µM (≈ 256 µg/mL) in [7]; 879 µM (≈ 256 µg/mL) in experiment [8]; 879 µM (≈ 256 µg/mL) in experiment [9]; 879 µM (≈ 256 µg/mL) in experiment [10]; 379 µM (≈ 110 µg/mL) in experiment [11].

As for `Cc1cn(-c2ccnc(N(CCO)CCO)n2)c(C)n1`, the MIC in experiment [1], in [2], in experiment [3], in experiment [4], in experiment [5] and in experiment [6] was 924 µM (≈ 256 µg/mL) in each case. The MIC in experiment [7] amounted to 462 µM (≈ 128 µg/mL); in experiment [8], 924 µM (≈ 256 µg/mL); in experiment [9] it was 924 µM (≈ 256 µg/mL); in experiment [10] it was 924 µM (≈ 256 µg/mL); in experiment [11] it was 934 µM (≈ 259 µg/mL).

As for `CO/N=C(/C(=O)N1CCN(c2nccc(-n3cncn3)n2)CC1)c1csc(N)n1`, the MIC in experiment [1] worked out at 294 µM (≈ 122 µg/mL); in [2] it was 587 µM (≈ 243 µg/mL); in [3], 294 µM (≈ 122 µg/mL); in [4] it was 294 µM (≈ 122 µg/mL); in experiment [5], 294 µM (≈ 122 µg/mL); in experiment [6] it was 587 µM (≈ 243 µg/mL). Also, the MIC in experiment [7] was found to be 294 µM (≈ 122 µg/mL); in [8] it was 147 µM (≈ 60.9 µg/mL); in [9], 587 µM (≈ 243 µg/mL); in experiment [10], 294 µM (≈ 122 µg/mL); in [11], 147 µM (≈ 60.9 µg/mL).

Regarding `Cc1nc2ccccc2n1-c1ccnc(N(CCO)CCO)n1`, the MIC was 102 µM (≈ 32 µg/mL) in experiment [1]; 204 µM (≈ 63.9 µg/mL) in experiment [2]; 409 µM (≈ 128 µg/mL) in [3]; 204 µM (≈ 63.9 µg/mL) in [4]; 51 µM (≈ 16 µg/mL) in experiment [5]; 102 µM (≈ 32 µg/mL) in experiment [6]. Moreover, the MIC in experiment [7] is 204 µM (≈ 63.9 µg/mL); in experiment [8], 817 µM (≈ 256 µg/mL); in experiment [9], 26 µM (≈ 8.15 µg/mL); in [10] it was 102 µM (≈ 32 µg/mL); in [11], 204 µM (≈ 63.9 µg/mL).

For the compound `CCCc1nccn1-c1nccc(N(CCO)CCO)n1`, the MIC in [1], in experiment [2], in experiment [3], in [4], in [5] and in experiment [6] was 879 µM (≈ 256 µg/mL) throughout. Further, the MIC in experiment [7], in experiment [8], in [9], in experiment [10] and in experiment [11] was 879 µM (≈ 256 µg/mL) throughout.

`CC(C)N(c1nccc(-n2cncn2)n1)C(C)C`: the MIC in experiment [1] was 1040 µM (≈ 256 µg/mL); in experiment [2] it was 1040 µM (≈ 256 µg/mL); in [3], 1040 µM (≈ 256 µg/mL); in experiment [4], 520 µM (≈ 128 µg/mL); in experiment [5] it was 1040 µM (≈ 256 µg/mL); in experiment [6], 520 µM (≈ 128 µg/mL). The MIC in experiment [7] was determined as 1040 µM (≈ 256 µg/mL); in experiment [8] it was 1040 µM (≈ 256 µg/mL); in experiment [9] it was 520 µM (≈ 128 µg/mL); in [10], 520 µM (≈ 128 µg/mL); in [11] it was 1040 µM (≈ 256 µg/mL).

With `Cc1cn(-c2ccnc(N(CCO)CCO)n2)cn1`, the MIC in experiment [1], in experiment [2], in experiment [3], in experiment [4], in [5] and in [6] was 973 µM (≈ 256 µg/mL) in each case. The MIC in [7] was found to be 973 µM (≈ 256 µg/mL); in [8], 1950 µM (≈ 512 µg/mL); in experiment [9], 973 µM (≈ 256 µg/mL); in experiment [10], 973 µM (≈ 256 µg/mL); in experiment [11], 973 µM (≈ 256 µg/mL).

In the case of `OCCN(CCO)c1nccc(-n2ccnc2)n1`, the MIC in [1], in [2], in experiment [3], in [4], in experiment [5] and in experiment [6] was 1030 µM (≈ 256 µg/mL) each time. For the same compound, the MIC in [7], in experiment [8], in [9], in [10] and in [11] was 1030 µM (≈ 256 µg/mL) each time.

Turning to `O=C1c2cccc3c(N4CCN(c5nccc(-n6cncn6)n5)CC4)ccc(c23)C(=O)N1CCO`, the MIC was 545 µM (≈ 256 µg/mL) in [1]; 9 µM (≈ 4.23 µg/mL) in [2]; 545 µM (≈ 256 µg/mL) in [3]; 545 µM (≈ 256 µg/mL) in experiment [4]; 545 µM (≈ 256 µg/mL) in [5]; 68 µM (≈ 32 µg/mL) in experiment [6]. Moreover, the MIC came to 272 µM (≈ 128 µg/mL) in [7]; 545 µM (≈ 256 µg/mL) in experiment [8]; 545 µM (≈ 256 µg/mL) in [9]; 545 µM (≈ 256 µg/mL) in experiment [10]; 545 µM (≈ 256 µg/mL) in [11].

Consider `OCCN(CCO)c1nccc(-n2cnc3cc(Br)ccc32)n1`, for which the MIC in experiment [1] is 1360 µM (≈ 514 µg/mL); in [2], 85 µM (≈ 32.1 µg/mL); in experiment [3], 679 µM (≈ 257 µg/mL); in experiment [4], 339 µM (≈ 128 µg/mL); in experiment [5], 1360 µM (≈ 514 µg/mL); in [6], 339 µM (≈ 128 µg/mL). Further, the MIC in experiment [7] was found to be 170 µM (≈ 64.3 µg/mL); in experiment [8] it was 1360 µM (≈ 514 µg/mL); in [9] it was 339 µM (≈ 128 µg/mL); in experiment [10], 85 µM (≈ 32.1 µg/mL); in experiment [11] it was 170 µM (≈ 64.3 µg/mL).

As to `CC(C)c1nccn1-c1nccc(N(CCO)CCO)n1`, the MIC in experiment [1] is 879 µM (≈ 256 µg/mL); in experiment [2] it was 879 µM (≈ 256 µg/mL); in [3], 1790 µM (≈ 521 µg/mL); in experiment [4] it was 1760 µM (≈ 512 µg/mL); in [5] it was 879 µM (≈ 256 µg/mL); in experiment [6], 440 µM (≈ 128 µg/mL). In addition, the MIC was found to be 440 µM (≈ 128 µg/mL) in [7]; 1760 µM (≈ 512 µg/mL) in [8]; 440 µM (≈ 128 µg/mL) in [9]; 879 µM (≈ 256 µg/mL) in experiment [10]; 879 µM (≈ 256 µg/mL) in [11].

Take `O=C(CCl)N1CCN(c2nccc(-n3cncn3)n2)CC1`: the MIC in experiment [1] was 417 µM (≈ 128 µg/mL); in [2] it was 104 µM (≈ 32 µg/mL); in experiment [3] it was 417 µM (≈ 128 µg/mL); in experiment [4], 104 µM (≈ 32 µg/mL); in experiment [5], 208 µM (≈ 64 µg/mL); in experiment [6] it was 208 µM (≈ 64 µg/mL). Also, the MIC in experiment [7] turned out to be 208 µM (≈ 64 µg/mL); in [8], 104 µM (≈ 32 µg/mL); in experiment [9], 104 µM (≈ 32 µg/mL); in experiment [10], 208 µM (≈ 64 µg/mL); in experiment [11], 104 µM (≈ 32 µg/mL).

Take `OCCN(CCO)c1ccnc(-n2ccnc2)n1`: the MIC in [1] was 1030 µM (≈ 256 µg/mL); in [2], 2060 µM (≈ 512 µg/mL); in [3] it was 1030 µM (≈ 256 µg/mL); in experiment [4], 1030 µM (≈ 256 µg/mL); in experiment [5], 1030 µM (≈ 256 µg/mL); in [6], 1030 µM (≈ 256 µg/mL). In addition, the MIC is 1030 µM (≈ 256 µg/mL) in experiment [7]; 2060 µM (≈ 512 µg/mL) in experiment [8]; 514 µM (≈ 128 µg/mL) in experiment [9]; 1030 µM (≈ 256 µg/mL) in experiment [10]; 1030 µM (≈ 256 µg/mL) in experiment [11].

The record behind these values is ChEMBL document CHEMBL5380831, “Azolylpyrimidinediols as Novel Structural Scaffolds of DNA-Groove Binders against Intractable Acinetobacter baumannii” (J Med Chem, 2023).
